Assay results from patent US20250177329A1, “GPR120 AGONISTS FOR THE TREATMENT OF INFLAMMATORY BOWEL DISEASE” (Dompe' Farmaceutici SPA, priority 2022, published 2025).

How the values were obtained:
DSS-induced colitis = test: Mouse model of Dextran Sodium Sulfate-induced colitis; type: in vivo, female C57/B16 mice; details: day 39
Text: A mouse model of colitis induced by administration of Dextran Sodium Sulfate (DSS) (Wirtz S. et al. Nature Protocols; Volume: 2, Issue: 3 Pages: 541-546; 2007) was used to study the therapeutic effect of oral administration of DFL23806 on colitis.
In details, 8- to 12-week-old female C57/B16 mice were subjected to 3 oral cycles of 2.5% Dextran Sodium Sulfate (DSS) in drinking water (molecular mass, 40 kDa; MP Biomedicals), each cycle characterized by 7 days of DSS administration followed by 7 days of filter-purified water.
From day 3 of DSS administration, the mice were divided in 4 experimental groups, each receiving the treatment specified below: • Group 1: DSS (n=8)
No treatment, used as negative control. • Group 2: DSS+Vehicle (n=8)
Treated with 20% v/v Dimethyl Sulfoxide (DMSO) and 80% v/v Phosphate Buffered Saline (PBS), 0.1 M, pH 8 (Vehicle), used as a negative control. • Group 3: DSS+DFL 90 mg/kg (n=8)
Treated with DFL23806 dissolved in Vehicle, at the dosage of 90 mg/kg once a day. • Group 4: DSS+5-ASA 60 mg/kg (n=8)
Treated with 5-aminosalicylic acid (5-ASA) in Vehicle, at the dosage of 60 mg/Kg once a day, used as reference positive control.
Vehicle, DFL23806 and 5-ASA were administered daily, in the morning, by oral gavage, using plastic sterile feeding tubes 20 ga×30 mm. All mice were sacrificed on day 39.
A DAI score was established based on a scale that considers different parameters characterizing experimental colitis induction and progression (R S Walmsley et al. Gut 1998; 43:29-32).
Body weight, presence of gross blood in the feces, and stool consistency were recorded every 2 days. In details, the DAI was determined at each time point by scoring changes in weight loss (0=none, 1=1%-5%, 2=5%-10%, 3=10%-20%, 4=>20%); stool consistency (0=normal, 2=loose, 4=diarrhea); and rectal bleeding (0=normal, 2=occult bleeding, 4=gross bleeding).
Mice were sacrificed at day 39, colon were collected and colon lengths measured for each mouse, as additional parameter of intestinal inflammation.
The day of sacrifice (day 39), mice were anesthetized with 2% isoflurane and subjected to endoscopy, to confirm the inflammatory grade. The experimental endoscopy setup, denoted “Coloview system”, consisted of a miniature endoscope (scope 1.9 mm outer diameter), a xenon light source, a triple chip camera, and an air pump (all from Karl Storz, Tuttlingen, Germany) to achieve regulated inflation of the mouse colon. The endoscopic procedure was viewed on a colour monitor and a modified murine endoscopic index score of colitis severity was assigned on the basis of colon translucency (0-3 points), granular features of the mucosa (0-3 points), morphology of the vascular pattern (0-4 points), and the presence of fibrin (0-4 points), as previously described by Dr. D'Alessio (D'Alessio, S. et al. J. Clin. Invest. 124, 3863-3878; 2014) leading to a cumulative score between 0 (no signs of inflammation) and […] (endoscopic signs of very severe inflammation).
Histological analysis has been performed by an expert pathologist, in a blinded fashion, to grade the intestinal inflammation. More in details, colons of colitic mice in the various experimental groups have been evaluated for histological analyses using […] paraffin-embedded sections, stained with hematoxylin (Dako) and eosin (Diapath). A blinded pathologist evaluated the degree of inflammatory cell infiltration and mucosal damage, using the RACHMILEWITZ score (Table 1) (Rachmilewitz, D. et al. Gastroenterology 122, 1428-1441; 2002).

GPR40 = target: T1, GPR40 (Mus musculus, UniProt Q76JU9); test: Co-immunoprecipitation of β-arrestin 2 with GPR40 in colon lysates of DSS mice; type: in vivo; details: pooled colon lysates, day 39; compared to DSS or DSS+vehicle
T1 construct: Colon lysates (˜900 μg proteins) from 6 mice of each experimental group were pooled; from tissue; host or cells: mouse colon (DSS colitis model)
Procedure: The efficiency of DFL in activating the GPR120 and/or GPR40 receptors was tested.
Agonist-induced GPR120 can engage multiple signalling pathways to regulate distinct physiological outcomes. After ligand binding, B-arrestins, such as B-arrestin 2 can associate with the cytoplasmic domains of GPR120 and couple the receptor to specific downstream signaling pathways (FIG. 9). For this reason, we verified the agonist efficiency in activating GPR120 and GPR40 by immunoprecipitation. Colon lysates (˜900 μg proteins) from 6 mice of each experimental group were pooled, precleared with protein A/G plus-agarose (Santa Cruz) and then incubated with the antibody used for immunoprecipitation (anti-GPR120 or anti-GPR40, Abcam) at 4° C. for 16 h, followed by incubation with protein A/G plus-agarose for 5 h. The agarose beads were then collected by centrifugation, washed four times with lysis buffer, and heated to 95° C. for 5 min after adding Laemmli buffer. The resulting immunoprecipitates were separated by SDS-PAGE and probed with the anti-β-arrestin 2 antibody (Santa Cruz).
Upon western blotting, a densitometric analysis of the blots was performed using Image J. FIGS. 10 and 11 show the ratio between co-immunoprecipitated β-arrestin 2 and GPR120 (FIG. 10) or GPR40 levels (FIG. 11) and the results of the blotting.

[1] = Plasma pharmacokinetics after single oral administration to mice; type: in vivo; details: male, CD1, mouse, single oral dose (Dose_PO: 10.0-90.0 mg/kg)
Text: The purpose of this study was to evaluate plasma and tissue exposure of the following compounds after a single oral administration to mice: • 7-(3-(N-(4-fluoro-2,6-dimethylphenyl)sulfamoyl)phenyl)heptanoic acid (indicated below as DFL23806), • 7-(3-(N-(4-chloro-2,6-dimethylphenyl)sulfamoyl)phenyl)heptanoic acid (indicated below as DFL23914) • 7-(3-(N-(2,6-dimethyl-4-(trifluoromethyl)phenyl)sulfamoyl)phenyl)heptanoic acid (indicated below as DFL23922) • 7-(3-(N-(6-fluoro-4-methyl-[1,1′-biphenyl]-3-yl)sulfamoyl)phenyl)heptanoic acid (indicated below as DFL23916) • 7-(3-(N-(5-fluoro-3-methyl-[1,1′-biphenyl]-2-yl)sulfamoyl)phenyl)heptanoic acid (indicated below as DFL23917) • 7-(3-{[4-fluoro-2-methyl-5-(thiophen-2-yl)phenyl]sulfamoyl}phenyl)heptanoic acid (indicated below as DFL24102) […]
A retro-orbital, composite blood sampling at pre-dose or after dosing at 30 min, 1, 2, 6, 8 and 24 hours (three mice/time point) was carried out for the plasma pharmacokinetic assessment. Blood samples were collected in heparinized collection tubes. Samples were taken immediately onto ice and kept cool until centrifugation (10000 g for 3 minutes at about +4° C.). About 50 μL of plasma were stored in a freezer at −80° C. pending analysis.
After samples collection, bioanalysis for concentrations of the test compounds were done using HPLC-MS/MS methods and pharmacokinetic analysis of the compounds in plasma and tissues was performed according to standard non-compartmental approach using Watson system (v 7.6, Thermo Fisher Scientific Waltham, MA, USA) on mean concentration data.

[2] = colon, DFL 90 mg/kg, 5-ASA 60 mg/kg, compared with DSS+Vehicle
[3] = DFL23806 90 mg/kg, 5-ASA 60 mg/kg oral once a day, compared to DSS and DSS+Vehicle

T1 sequence (Q76JU9 whole entry): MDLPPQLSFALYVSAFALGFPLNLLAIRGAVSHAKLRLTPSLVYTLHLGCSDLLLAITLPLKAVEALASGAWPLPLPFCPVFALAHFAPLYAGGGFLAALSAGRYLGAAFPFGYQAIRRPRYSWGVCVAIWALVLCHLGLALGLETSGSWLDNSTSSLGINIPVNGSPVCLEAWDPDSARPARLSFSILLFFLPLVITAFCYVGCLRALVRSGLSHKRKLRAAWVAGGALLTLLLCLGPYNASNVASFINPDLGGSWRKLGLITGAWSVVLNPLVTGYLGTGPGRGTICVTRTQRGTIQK

Structure (SMILES) | GPR40 and β-arrestin 2 association (ratio co-immunoprecipitated β-arrestin 2 / GPR40) (GPR40) | AUC(0-inf) [1] [ng·h/mL] | AUC(0-t) [1] [ng·h/mL] | Cmax [1] [ng/mL] | Tmax [1] [h] | half-life [1] [h] | histological score (Rachmilewitz) for extent of flogosis (DSS-induced colitis; [2]) | histological score (Rachmilewitz) for extent of ulceration (DSS-induced colitis; [2]) | histological score (Rachmilewitz) for flogosis (DSS-induced colitis; [2]) | histological score (Rachmilewitz) for ulceration (DSS-induced colitis; [2]) | composite endoscopic score (DSS-induced colitis; [3]) | endoscopic score: colon thickness (DSS-induced colitis; [3]) | endoscopic score: mucosal surface granularity (DSS-induced colitis; [3]) | endoscopic score: vascular pattern (DSS-induced colitis; [3]) | endoscopic score: visible fibrin (DSS-induced colitis; [3]) | colon length (DSS-induced colitis; DFL23806 90 mg/kg, 5-ASA 60 mg/kg oral once a day, compared to DSS+vehicle)
Nc1ccc(O)c(C(=O)O)c1 [5-ASA, 5-aminosalicylic acid, reference compound] | no increase |  |  |  |  |  | significantly reduced the histological score | significantly reduced the histological score | significantly reduced the histological score | significantly reduced the histological score | significantly inhibit chronic experimental colitis | significantly inhibit chronic experimental colitis | significantly inhibit chronic experimental colitis | significantly inhibit chronic experimental colitis | significantly inhibit chronic experimental colitis | significant inhibitory effect
Cc1cc(Cl)cc(C)c1NS(=O)(=O)c1cccc(CCCCCCC(=O)O)c1 [DFL23914, 7-(3-(N-(4-chloro-2,6-dimethylphenyl)sulfamoyl)phenyl)heptanoic acid] |  | 230 | 189 | 45 | 2 | 1.2 |  |  |  |  |  |  |  |  |  | 
Cc1cc(F)c(-c2ccccc2)cc1NS(=O)(=O)c1cccc(CCCCCCC(=O)O)c1 [DFL23916, 7-(3-(N-(6-fluoro-4-methyl-[1,1′-biphenyl]-3-yl)sulfamoyl)phenyl)heptanoic acid] |  | 571 | 480 | 198 | 0.4 | 2.2 |  |  |  |  |  |  |  |  |  | 

Now from value to compound, other results behind:

GPR40 and β-arrestin 2 association (ratio co-immunoprecipitated β-arrestin 2 / GPR40) (GPR40) | AUC(0-inf) [1] [ng·h/mL] | AUC(0-t) [1] [ng·h/mL] | Cmax [1] [ng/mL] | Tmax [1] [h] | half-life [1] [h] | Structure (SMILES) | histological score (Rachmilewitz) for extent of flogosis (DSS-induced colitis; [2]) | histological score (Rachmilewitz) for extent of ulceration (DSS-induced colitis; [2]) | histological score (Rachmilewitz) for flogosis (DSS-induced colitis; [2]) | histological score (Rachmilewitz) for ulceration (DSS-induced colitis; [2]) | composite endoscopic score (DSS-induced colitis; [3]) | endoscopic score: colon thickness (DSS-induced colitis; [3]) | endoscopic score: mucosal surface granularity (DSS-induced colitis; [3]) | endoscopic score: vascular pattern (DSS-induced colitis; [3]) | endoscopic score: visible fibrin (DSS-induced colitis; [3]) | colon length (DSS-induced colitis; DFL23806 90 mg/kg, 5-ASA 60 mg/kg oral once a day, compared to DSS+vehicle)
 | 402 | 378 | 135 | 0.5 | 1.3 | Cc1cc(F)cc(-c2ccccc2)c1NS(=O)(=O)c1cccc(CCCCCCC(=O)O)c1 [DFL23917, 7-(3-(N-(5-fluoro-3-methyl-[1,1′-biphenyl]-2-yl)sulfamoyl)phenyl)heptanoic acid] |  |  |  |  |  |  |  |  |  | 
 | 217 | 201 | 123 | 1.4 | 1.5 | Cc1cc(C(F)(F)F)cc(C)c1NS(=O)(=O)c1cccc(CCCCCCC(=O)O)c1 [DFL23922, 7-(3-(N-(2,6-dimethyl-4-(trifluoromethyl)phenyl)sulfamoyl)phenyl)heptanoic acid] |  |  |  |  |  |  |  |  |  | 
 | 302 | 278 | 113 | 1 | 1.9 | Cc1cc(F)c(-c2cccs2)cc1NS(=O)(=O)c1cccc(CCCCCCC(=O)O)c1 [DFL24102, 7-(3-{[4-fluoro-2-methyl-5-(thiophen-2-yl)phenyl]sulfamoyl}phenyl)heptanoic acid] |  |  |  |  |  |  |  |  |  | 
